The supplement of paper PMC10307832

Experiments:
Assay in all cases: relative viability (nuclei count vs DMSO), 5 days (fraction); higher = more cells survive
NCI-H661 = system: NCI-H661
Procedure, shortened: (§1)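 Cells from lung cancer lines were seeded into 1536-well plates and, one day later, dosed by pin tool. Treatments were either a single drug or a fixed dose of an anchor drug with five library-drug doses (not always all listed) in √10 steps. After 5 days, nuclei were stained in a one-step fixation (final 0.05% Triton X-100, 1% formaldehyde, 1 ug/ml Hoechst) and counted on 4× images, and relative viability is the treated-to-vehicle nuclei ratio, as the median of duplicate plates.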

SK-LU-1 = system: SK-LU-1
Procedure, shortened: as §1

NCI-H2405 = system: NCI-H2405
Procedure, shortened: as §1

NCI-H23 = system: NCI-H23
Procedure, shortened: as §1

NCI-H596 = system: NCI-H596
Procedure, shortened: as §1

HCC-827 = system: HCC-827
Procedure, shortened: as §1

EKVX = system: EKVX
Procedure, shortened: as §1

NCI-H650 = system: NCI-H650
Procedure, shortened: as §1

HOP-62 = system: HOP-62
Procedure, shortened: as §1

LOU-NH91 = system: LOU-NH91
Procedure, shortened: as §1

NCI-H3122 = system: NCI-H3122
Procedure, shortened: as §1

COR-L 105 = system: COR-L 105
Procedure, shortened: as §1

NCI-H1975 = system: NCI-H1975
Procedure, shortened: as §1

LCLC-103H = system: LCLC-103H
Procedure, shortened: as §1

HARA = system: HARA
Procedure, shortened: as §1

PC-3 [JPC-3] = system: PC-3 [JPC-3]
Procedure, shortened: as §1

NCI-H2126 = system: NCI-H2126
Procedure, shortened: as §1

NCI-H727 = system: NCI-H727
Procedure, shortened: as §1

H3255 = system: H3255
Procedure, shortened: as §1

NCI-H2228 = system: NCI-H2228
Procedure, shortened: as §1

201T = system: 201T
Procedure, shortened: as §1

**Q.** What does the source list for Cc1csc(=NC2CCCCC2)n1/N=C/c1ccc(O)c(O)c1O [MIM1] + Cc1nc(NC(=O)N2CCC[C@H]2C(N)=O)sc1-c1ccnc(C(C)(C)C(F)(F)F)c1 [Alpelisib] (partner 2 µM)?
**A.** relative viability (NCI-H661; first compound 0.2 µM): 0.728; relative viability (NCI-H661; first compound 0.6325 µM): 0.847; relative viability (NCI-H661; first compound 2 µM): 0.655; relative viability (NCI-H661; first compound 6.325 µM): 0.472; relative viability (NCI-H661; first compound 20 µM): 0.305; relative viability (SK-LU-1; first compound 0.2 µM): 1; relative viability (SK-LU-1; first compound 0.6325 µM): 1.06; relative viability (SK-LU-1; first compound 2 µM): 1.26; relative viability (SK-LU-1; first compound 6.325 µM): 0.87; relative viability (SK-LU-1; first compound 20 µM): 0.715; relative viability (NCI-H2405; first compound 0.2 µM): 0.787; relative viability (NCI-H2405; first compound 0.6325 µM): 0.85; relative viability (NCI-H2405; first compound 2 µM): 0.739; relative viability (NCI-H2405; first compound 6.325 µM): 0.76; relative viability (NCI-H2405; first compound 20 µM): 0.644; relative viability (NCI-H23; first compound 0.2 µM): 0.653; relative viability (NCI-H23; first compound 2 µM): 0.555; relative viability (NCI-H23; first compound 6.325 µM): 0.606; relative viability (NCI-H23; first compound 20 µM): 0.203; relative viability (NCI-H596; first compound 0.2 µM): 0.491; relative viability (NCI-H596; first compound 0.6325 µM): 0.501; relative viability (NCI-H596; first compound 2 µM): 0.525; relative viability (NCI-H596; first compound 6.325 µM): 0.497; relative viability (NCI-H596; first compound 20 µM): 0.48; relative viability (HCC-827; first compound 0.2 µM): 0.953; relative viability (HCC-827; first compound 0.6325 µM): 0.986; relative viability (HCC-827; first compound 2 µM): 0.913; relative viability (HCC-827; first compound 6.325 µM): 0.441; relative viability (HCC-827; first compound 20 µM): 0.34; relative viability (EKVX; first compound 0.2 µM): 0.924; relative viability (EKVX; first compound 0.6325 µM): 0.91; relative viability (EKVX; first compound 2 µM): 0.934; relative viability (EKVX; first compound 6.325 µM): 0.575; relative viability (EKVX; first compound 20 µM): 0.615; relative viability (NCI-H650; first compound 0.2 µM): 1.19; relative viability (NCI-H650; first compound 0.6325 µM): 1.1; relative viability (NCI-H650; first compound 2 µM): 1.27; relative viability (NCI-H650; first compound 6.325 µM): 1.04; relative viability (NCI-H650; first compound 20 µM): 0.396; relative viability (HOP-62; first compound 0.2 µM): 0.785; relative viability (HOP-62; first compound 0.6325 µM): 0.958; relative viability (HOP-62; first compound 2 µM): 0.608; relative viability (HOP-62; first compound 6.325 µM): 1.03; relative viability (HOP-62; first compound 20 µM): 0.24; relative viability (LOU-NH91; first compound 0.2 µM): 0.704; relative viability (LOU-NH91; first compound 0.6325 µM): 0.779; relative viability (LOU-NH91; first compound 2 µM): 0.591; relative viability (LOU-NH91; first compound 6.325 µM): 0.641; relative viability (LOU-NH91; first compound 20 µM): 0.561; relative viability (NCI-H3122; first compound 0.2 µM): 0.825; relative viability (NCI-H3122; first compound 0.6325 µM): 0.833; relative viability (NCI-H3122; first compound 2 µM): 0.881; relative viability (NCI-H3122; first compound 6.325 µM): 0.644; relative viability (NCI-H3122; first compound 20 µM): 0.249; relative viability (COR-L 105; first compound 0.2 µM): 0.782; relative viability (COR-L 105; first compound 0.6325 µM): 0.971; relative viability (COR-L 105; first compound 2 µM): 0.849; relative viability (COR-L 105; first compound 6.325 µM): 0.934; relative viability (COR-L 105; first compound 20 µM): 0.966; relative viability (NCI-H1975; first compound 0.2 µM): 0.63; relative viability (NCI-H1975; first compound 0.6325 µM): 0.624; relative viability (NCI-H1975; first compound 2 µM): 0.569; relative viability (NCI-H1975; first compound 6.325 µM): 0.391; relative viability (NCI-H1975; first compound 20 µM): 0.313; relative viability (LCLC-103H; first compound 0.2 µM): 0.9; relative viability (LCLC-103H; first compound 0.6325 µM): 1.08; relative viability (LCLC-103H; first compound 2 µM): 1.08; relative viability (LCLC-103H; first compound 6.325 µM): 0.913; relative viability (LCLC-103H; first compound 20 µM): 0.928; relative viability (HARA; first compound 0.2 µM): 0.887; relative viability (HARA; first compound 0.6325 µM): 0.857; relative viability (HARA; first compound 2 µM): 0.878; relative viability (HARA; first compound 6.325 µM): 0.361; relative viability (HARA; first compound 20 µM): 0.165; relative viability (PC-3 [JPC-3]; first compound 0.2 µM): 1.06; relative viability (PC-3 [JPC-3]; first compound 0.6325 µM): 1.03; relative viability (PC-3 [JPC-3]; first compound 2 µM): 1.02; relative viability (PC-3 [JPC-3]; first compound 6.325 µM): 0.884; relative viability (PC-3 [JPC-3]; first compound 20 µM): 0.716; relative viability (NCI-H2126; first compound 0.2 µM): 0.708; relative viability (NCI-H2126; first compound 0.6325 µM): 0.756; relative viability (NCI-H2126; first compound 2 µM): 0.776; relative viability (NCI-H2126; first compound 6.325 µM): 0.758; relative viability (NCI-H2126; first compound 20 µM): 0.727; relative viability (NCI-H727; first compound 0.2 µM): 0.595; relative viability (NCI-H727; first compound 0.6325 µM): 0.614; relative viability (NCI-H727; first compound 2 µM): 0.534; relative viability (NCI-H727; first compound 6.325 µM): 0.482; relative viability (NCI-H727; first compound 20 µM): 0.397; relative viability (H3255; first compound 0.2 µM): 0.753; relative viability (H3255; first compound 0.6325 µM): 0.56; relative viability (H3255; first compound 2 µM): 0.642; relative viability (H3255; first compound 6.325 µM): 0.523; relative viability (H3255; first compound 20 µM): 0.311; relative viability (NCI-H2228; first compound 0.2 µM): 0.76; relative viability (NCI-H2228; first compound 0.6325 µM): 1.09; relative viability (NCI-H2228; first compound 2 µM): 0.666; relative viability (NCI-H2228; first compound 6.325 µM): 0.335; relative viability (NCI-H2228; first compound 20 µM): 0.197; relative viability (201T; first compound 0.2 µM): 1; relative viability (201T; first compound 0.6325 µM): 1.03; relative viability (201T; first compound 2 µM): 1.02; relative viability (201T; first compound 6.325 µM): 0.942; relative viability (201T; first compound 20 µM): 1.29
